Experiments:
Assay in all cases: KINOMEscan
Format in all cases: binding
ABL1 (H396P)-P = target: T1, ABL1 (H396P)-P (Homo sapiens, UniProt P00519, H396P)
T1 construct: purchased Eurofins DiscoverX KINOMEscan
How it was run: (§1)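 Compound and kinase were incubated at room temperature for 1 h, the free kinase fraction was captured with an immobilized affinity ligand, and capture was quantified by quantitative PCR; Kd values used a 12-point half-log series up to 33 μM.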

ACVR1B = target: T2, ACVR1B (Homo sapiens, UniProt P36896)
T2 construct: purchased Eurofins DiscoverX KINOMEscan
How it was run: as §1

BIKE = target: T3, BIKE (Homo sapiens, UniProt Q9NSY1)
T3 construct: purchased Eurofins DiscoverX KINOMEscan
How it was run: as §1

BUB1 = target: T4, BUB1 (Homo sapiens, UniProt O43683)
T4 construct: purchased Eurofins DiscoverX KINOMEscan
How it was run: as §1

CAMK1 = target: T5, CAMK1 (Homo sapiens, UniProt Q14012)
T5 construct: purchased Eurofins DiscoverX KINOMEscan
How it was run: as §1

CAMK1G = target: T6, CAMK1G (Homo sapiens, UniProt Q96NX5)
T6 construct: purchased Eurofins DiscoverX KINOMEscan
How it was run: as §1

CAMK2G = target: T7, CAMK2G (Homo sapiens, UniProt Q13555)
T7 construct: purchased Eurofins DiscoverX KINOMEscan
How it was run: as §1

CASK = target: T8, CASK (Homo sapiens, UniProt O14936)
T8 construct: purchased Eurofins DiscoverX KINOMEscan
T8 sequence (O14936 whole entry): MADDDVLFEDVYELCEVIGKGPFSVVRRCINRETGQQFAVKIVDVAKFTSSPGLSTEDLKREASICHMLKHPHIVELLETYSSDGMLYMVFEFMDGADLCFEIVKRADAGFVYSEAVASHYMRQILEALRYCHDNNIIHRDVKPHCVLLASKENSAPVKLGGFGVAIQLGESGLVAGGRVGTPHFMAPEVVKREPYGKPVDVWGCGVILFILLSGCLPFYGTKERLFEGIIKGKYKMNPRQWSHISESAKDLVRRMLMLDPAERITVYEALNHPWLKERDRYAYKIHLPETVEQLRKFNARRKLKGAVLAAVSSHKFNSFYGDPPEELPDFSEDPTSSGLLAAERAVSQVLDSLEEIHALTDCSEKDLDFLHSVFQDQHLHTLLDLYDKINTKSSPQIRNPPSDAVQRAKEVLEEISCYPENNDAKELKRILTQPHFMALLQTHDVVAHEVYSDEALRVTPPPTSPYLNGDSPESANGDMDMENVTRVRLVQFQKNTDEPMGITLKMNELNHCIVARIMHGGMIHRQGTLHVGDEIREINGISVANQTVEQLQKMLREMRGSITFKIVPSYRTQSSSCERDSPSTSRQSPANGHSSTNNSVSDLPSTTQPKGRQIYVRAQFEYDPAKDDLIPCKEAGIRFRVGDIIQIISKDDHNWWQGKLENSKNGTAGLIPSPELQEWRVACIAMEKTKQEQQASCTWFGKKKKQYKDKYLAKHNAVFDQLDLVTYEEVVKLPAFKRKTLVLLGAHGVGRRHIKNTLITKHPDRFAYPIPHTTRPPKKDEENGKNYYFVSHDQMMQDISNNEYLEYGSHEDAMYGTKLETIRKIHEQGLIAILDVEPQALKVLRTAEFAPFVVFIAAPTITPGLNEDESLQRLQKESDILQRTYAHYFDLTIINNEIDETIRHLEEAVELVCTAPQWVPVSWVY
How it was run: as §1

CDC2L1 = target: T9, CDC2L1 (Homo sapiens, UniProt P21127)
T9 construct: purchased Eurofins DiscoverX KINOMEscan
How it was run: as §1

CDK3 = target: T10, CDK3 (Homo sapiens, UniProt Q00526)
T10 construct: purchased Eurofins DiscoverX KINOMEscan
How it was run: as §1

CSNK1E = target: T11, CSNK1E (Homo sapiens, UniProt P49674)
T11 construct: purchased Eurofins DiscoverX KINOMEscan
How it was run: as §1

DLK = target: T12, DLK (Homo sapiens, UniProt Q12852)
T12 construct: purchased Eurofins DiscoverX KINOMEscan
T12 sequence (Q12852 whole entry): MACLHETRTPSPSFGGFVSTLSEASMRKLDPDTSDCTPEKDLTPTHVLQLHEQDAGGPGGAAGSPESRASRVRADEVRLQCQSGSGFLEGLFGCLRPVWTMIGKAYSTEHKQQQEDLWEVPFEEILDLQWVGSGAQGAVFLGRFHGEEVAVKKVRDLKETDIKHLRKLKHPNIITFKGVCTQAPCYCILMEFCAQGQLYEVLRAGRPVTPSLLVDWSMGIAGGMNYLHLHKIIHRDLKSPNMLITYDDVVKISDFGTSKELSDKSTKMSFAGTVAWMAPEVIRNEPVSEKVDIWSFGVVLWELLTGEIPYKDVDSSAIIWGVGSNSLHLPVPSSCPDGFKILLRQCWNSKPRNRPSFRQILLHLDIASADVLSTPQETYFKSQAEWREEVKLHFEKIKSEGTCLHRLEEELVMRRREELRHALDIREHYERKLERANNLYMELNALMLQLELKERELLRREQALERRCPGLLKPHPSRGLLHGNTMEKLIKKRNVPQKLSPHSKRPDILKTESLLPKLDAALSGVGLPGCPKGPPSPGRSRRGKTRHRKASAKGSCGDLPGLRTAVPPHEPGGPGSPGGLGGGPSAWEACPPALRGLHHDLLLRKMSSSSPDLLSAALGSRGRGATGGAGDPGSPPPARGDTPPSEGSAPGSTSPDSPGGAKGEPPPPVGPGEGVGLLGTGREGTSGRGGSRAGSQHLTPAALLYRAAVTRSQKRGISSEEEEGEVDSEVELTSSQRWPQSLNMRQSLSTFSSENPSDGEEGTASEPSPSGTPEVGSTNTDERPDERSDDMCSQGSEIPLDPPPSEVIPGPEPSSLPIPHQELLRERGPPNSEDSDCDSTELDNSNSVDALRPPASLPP
How it was run: as §1

DYRK2 = target: T13, DYRK2 (Homo sapiens, UniProt Q92630)
T13 construct: purchased Eurofins DiscoverX KINOMEscan
How it was run: as §1

EPHA3 = target: T14, EPHA3 (Homo sapiens, UniProt P29320)
T14 construct: purchased Eurofins DiscoverX KINOMEscan
T14 sequence (P29320 21-983): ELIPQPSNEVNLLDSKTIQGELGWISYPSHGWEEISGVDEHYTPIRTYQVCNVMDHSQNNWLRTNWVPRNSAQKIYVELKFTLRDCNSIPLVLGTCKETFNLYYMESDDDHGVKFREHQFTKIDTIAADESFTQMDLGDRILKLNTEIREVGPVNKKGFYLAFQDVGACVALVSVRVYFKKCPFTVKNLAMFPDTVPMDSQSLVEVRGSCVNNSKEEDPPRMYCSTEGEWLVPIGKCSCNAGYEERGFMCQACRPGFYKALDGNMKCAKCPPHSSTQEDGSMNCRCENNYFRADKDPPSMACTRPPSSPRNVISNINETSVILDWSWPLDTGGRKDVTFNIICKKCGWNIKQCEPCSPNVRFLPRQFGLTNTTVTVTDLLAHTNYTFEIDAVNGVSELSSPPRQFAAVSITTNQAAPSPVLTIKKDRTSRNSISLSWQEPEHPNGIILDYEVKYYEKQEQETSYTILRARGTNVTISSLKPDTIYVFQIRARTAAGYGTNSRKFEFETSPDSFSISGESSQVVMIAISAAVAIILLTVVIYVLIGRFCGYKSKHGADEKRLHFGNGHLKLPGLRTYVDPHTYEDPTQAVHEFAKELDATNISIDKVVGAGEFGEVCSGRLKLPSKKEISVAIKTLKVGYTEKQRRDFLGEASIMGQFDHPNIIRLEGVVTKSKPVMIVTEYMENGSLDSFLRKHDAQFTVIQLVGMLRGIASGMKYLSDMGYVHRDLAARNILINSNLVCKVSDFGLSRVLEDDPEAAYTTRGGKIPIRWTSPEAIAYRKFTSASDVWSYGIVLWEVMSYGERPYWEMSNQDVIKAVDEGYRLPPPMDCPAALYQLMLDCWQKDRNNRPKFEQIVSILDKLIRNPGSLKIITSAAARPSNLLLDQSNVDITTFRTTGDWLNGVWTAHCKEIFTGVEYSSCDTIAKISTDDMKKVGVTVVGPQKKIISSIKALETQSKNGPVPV
How it was run: as §1

FAK = target: T15, FAK (Homo sapiens, UniProt Q05397)
T15 construct: purchased Eurofins DiscoverX KINOMEscan
How it was run: as §1

FER = target: T16, FER (Homo sapiens, UniProt P16591)
T16 construct: purchased Eurofins DiscoverX KINOMEscan
How it was run: as §1

IKK-ε = target: T17, IKK-ε (Homo sapiens, UniProt Q14164)
T17 construct: purchased Eurofins DiscoverX KINOMEscan
How it was run: as §1

IRAK3 = target: T18, IRAK3 (Homo sapiens, UniProt Q9Y616)
T18 construct: purchased Eurofins DiscoverX KINOMEscan
How it was run: as §1

IRAK4 = target: T19, IRAK4 (Homo sapiens, UniProt Q9NWZ3)
T19 construct: purchased Eurofins DiscoverX KINOMEscan
How it was run: as §1

KIT (V559D, V654A) = target: T20, KIT (V559D, V654A) (Homo sapiens, UniProt P10721, V559D/V654A)
T20 construct: purchased Eurofins DiscoverX KINOMEscan
How it was run: as §1

LCK = target: T21, LCK (Homo sapiens, UniProt P06239)
T21 construct: purchased Eurofins DiscoverX KINOMEscan
How it was run: as §1

MAP3K19 = target: T22, MAP3K19 (Homo sapiens, UniProt Q56UN5)
T22 construct: purchased Eurofins DiscoverX KINOMEscan
How it was run: as §1

NDR1 = target: T23, NDR1 (Homo sapiens, UniProt Q15208)
T23 construct: purchased Eurofins DiscoverX KINOMEscan
How it was run: as §1

NEK2 = target: T24, NEK2 (Homo sapiens, UniProt P51955)
T24 construct: purchased Eurofins DiscoverX KINOMEscan
How it was run: as §1

NEK6 = target: T25, NEK6 (Homo sapiens, UniProt Q9HC98)
T25 construct: purchased Eurofins DiscoverX KINOMEscan
T25 sequence (Q9HC98 whole entry): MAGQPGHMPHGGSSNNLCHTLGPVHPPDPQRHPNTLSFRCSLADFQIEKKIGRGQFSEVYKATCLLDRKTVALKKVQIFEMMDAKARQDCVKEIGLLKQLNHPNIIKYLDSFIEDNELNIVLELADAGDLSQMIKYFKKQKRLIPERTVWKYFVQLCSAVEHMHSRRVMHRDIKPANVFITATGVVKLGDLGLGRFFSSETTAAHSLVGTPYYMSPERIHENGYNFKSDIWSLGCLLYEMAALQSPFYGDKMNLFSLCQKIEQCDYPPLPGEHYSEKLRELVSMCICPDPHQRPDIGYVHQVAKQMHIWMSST
How it was run: as §1

NEK9 = target: T26, NEK9 (Homo sapiens, UniProt Q8TD19)
T26 construct: purchased Eurofins DiscoverX KINOMEscan
How it was run: as §1

PAK2 = target: T27, PAK2 (Homo sapiens, UniProt Q13177)
T27 construct: purchased Eurofins DiscoverX KINOMEscan
How it was run: as §1

PAK7 = target: T28, PAK7 (Homo sapiens, UniProt Q9P286)
T28 construct: purchased Eurofins DiscoverX KINOMEscan
T28 sequence (Q9P286 whole entry): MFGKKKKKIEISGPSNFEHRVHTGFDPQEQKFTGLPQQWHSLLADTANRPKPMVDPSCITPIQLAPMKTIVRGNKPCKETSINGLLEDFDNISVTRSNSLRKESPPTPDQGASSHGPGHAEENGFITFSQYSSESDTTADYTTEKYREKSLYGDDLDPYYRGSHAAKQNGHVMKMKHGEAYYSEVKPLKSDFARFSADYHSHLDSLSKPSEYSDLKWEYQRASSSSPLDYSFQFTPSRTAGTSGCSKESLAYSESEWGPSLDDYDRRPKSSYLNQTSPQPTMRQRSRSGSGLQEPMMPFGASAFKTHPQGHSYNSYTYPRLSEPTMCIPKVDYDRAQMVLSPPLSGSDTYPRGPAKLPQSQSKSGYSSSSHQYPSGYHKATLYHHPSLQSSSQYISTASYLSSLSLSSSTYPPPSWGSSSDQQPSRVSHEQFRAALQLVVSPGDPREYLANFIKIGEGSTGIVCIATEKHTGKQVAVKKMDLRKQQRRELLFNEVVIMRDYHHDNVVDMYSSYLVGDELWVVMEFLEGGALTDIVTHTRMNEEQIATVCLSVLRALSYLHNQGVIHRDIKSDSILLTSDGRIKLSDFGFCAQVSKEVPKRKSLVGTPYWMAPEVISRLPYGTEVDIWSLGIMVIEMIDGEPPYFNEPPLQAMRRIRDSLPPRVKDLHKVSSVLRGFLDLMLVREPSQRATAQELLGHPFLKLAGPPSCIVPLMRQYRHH
How it was run: as §1

PCTK3 = target: T29, PCTK3 (Homo sapiens, UniProt Q07002)
T29 construct: purchased Eurofins DiscoverX KINOMEscan
How it was run: as §1

PIK3C2G = target: T30, PIK3C2G (Homo sapiens, UniProt O75747)
T30 construct: purchased Eurofins DiscoverX KINOMEscan
How it was run: as §1

PKMYT1 = target: T31, PKMYT1 (Homo sapiens, UniProt Q99640)
T31 construct: purchased Eurofins DiscoverX KINOMEscan
T31 sequence (Q99640 whole entry): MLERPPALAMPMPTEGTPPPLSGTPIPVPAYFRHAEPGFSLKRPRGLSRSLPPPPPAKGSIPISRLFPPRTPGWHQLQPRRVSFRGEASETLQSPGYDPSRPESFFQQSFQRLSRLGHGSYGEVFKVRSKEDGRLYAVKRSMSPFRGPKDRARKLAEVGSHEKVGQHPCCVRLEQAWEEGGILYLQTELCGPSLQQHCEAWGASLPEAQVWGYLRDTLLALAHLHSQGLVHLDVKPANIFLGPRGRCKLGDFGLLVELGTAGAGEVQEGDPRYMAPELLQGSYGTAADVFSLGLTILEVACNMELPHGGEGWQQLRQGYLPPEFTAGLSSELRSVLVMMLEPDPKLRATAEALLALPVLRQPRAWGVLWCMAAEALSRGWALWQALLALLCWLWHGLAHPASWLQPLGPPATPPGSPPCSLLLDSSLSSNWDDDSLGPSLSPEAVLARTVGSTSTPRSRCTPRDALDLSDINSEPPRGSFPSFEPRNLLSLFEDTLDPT
How it was run: as §1

PRKCH = target: T32, PRKCH (Homo sapiens, UniProt P24723)
T32 construct: purchased Eurofins DiscoverX KINOMEscan
T32 sequence (P24723 whole entry): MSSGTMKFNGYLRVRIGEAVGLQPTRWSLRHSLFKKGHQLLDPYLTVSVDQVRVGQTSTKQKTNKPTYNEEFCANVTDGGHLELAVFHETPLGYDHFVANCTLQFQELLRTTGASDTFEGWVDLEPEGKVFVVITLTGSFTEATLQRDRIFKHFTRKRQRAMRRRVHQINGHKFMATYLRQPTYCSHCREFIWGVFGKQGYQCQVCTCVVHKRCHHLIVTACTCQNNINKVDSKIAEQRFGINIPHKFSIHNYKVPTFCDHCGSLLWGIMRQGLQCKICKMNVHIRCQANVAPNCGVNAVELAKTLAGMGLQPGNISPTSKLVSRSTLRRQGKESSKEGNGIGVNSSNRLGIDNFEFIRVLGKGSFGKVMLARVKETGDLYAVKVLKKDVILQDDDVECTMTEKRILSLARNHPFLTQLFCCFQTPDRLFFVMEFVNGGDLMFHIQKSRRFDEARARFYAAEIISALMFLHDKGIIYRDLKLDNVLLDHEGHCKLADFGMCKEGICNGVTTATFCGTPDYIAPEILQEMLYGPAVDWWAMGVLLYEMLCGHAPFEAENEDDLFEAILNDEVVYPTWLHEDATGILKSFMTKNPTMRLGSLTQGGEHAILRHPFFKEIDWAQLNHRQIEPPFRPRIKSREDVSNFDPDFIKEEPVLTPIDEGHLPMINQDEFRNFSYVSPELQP
How it was run: as §1

PRKG1 = target: T33, PRKG1 (Homo sapiens, UniProt Q13976)
T33 construct: purchased Eurofins DiscoverX KINOMEscan
How it was run: as §1

RET (V804L) = target: T34, RET (V804L) (Homo sapiens, UniProt P07949, V804L)
T34 construct: purchased Eurofins DiscoverX KINOMEscan
How it was run: as §1

RIPK2 = target: T35, RIPK2 (Homo sapiens, UniProt O43353)
T35 construct: purchased Eurofins DiscoverX KINOMEscan
How it was run: as §1

[1] = target: T36, RSK2 (Kin. Dom.2-C-term.) (Homo sapiens, UniProt P51812)
T36 construct: RSK2 (Kin. Dom.2-C-term.); purchased Eurofins DiscoverX KINOMEscan
How it was run: as §1

S6K1 = target: T37, S6K1 (Homo sapiens, UniProt P23443)
T37 construct: purchased Eurofins DiscoverX KINOMEscan
How it was run: as §1

SRMS = target: T38, SRMS (Homo sapiens, UniProt Q9H3Y6)
T38 construct: purchased Eurofins DiscoverX KINOMEscan
How it was run: as §1

SYK = target: T39, SYK (Homo sapiens, UniProt P43405)
T39 construct: purchased Eurofins DiscoverX KINOMEscan
How it was run: as §1

TRKC = target: T40, TRKC (Homo sapiens, UniProt Q16288)
T40 construct: purchased Eurofins DiscoverX KINOMEscan
How it was run: as §1

## O=C1Nc2c(cc([N+](=O)[O-])c3c2CCCC3)C1=NO [Compound 5d, 3-(Hydroxyimino)-5-nitro-1,3,6,7,8,9-hexahydro-2H-benzo[g]indol-2-one]
ABL1 (H396P)-P
  inhibition at 10 µM: 41%
ACVR1B
  inhibition at 10 µM: 10%
BIKE
  inhibition at 10 µM: 75%
BUB1
  inhibition at 10 µM: 95.6%
CAMK1
  inhibition at 10 µM: 38%
CAMK1G
  inhibition at 10 µM: 29%
CAMK2G
  inhibition at 10 µM: 25%
CASK
  inhibition at 10 µM: 2%
CDC2L1
  inhibition at 10 µM: 0%
CDK3
  inhibition at 10 µM: 13%
CSNK1E
  inhibition at 10 µM: 80%
DLK
  inhibition at 10 µM: 23%
DYRK2
  inhibition at 10 µM: 81%
EPHA3
  inhibition at 10 µM: 45%
FAK
  inhibition at 10 µM: 19%
FER
  inhibition at 10 µM: 39%
IKK-ε
  inhibition at 10 µM: 23%
IRAK3
  inhibition at 10 µM: 32%
IRAK4
  inhibition at 10 µM: 86%
KIT (V559D, V654A)
  inhibition at 10 µM: 0%
LCK
  inhibition at 10 µM: 29%
MAP3K19
  inhibition at 10 µM: 95.8%
NDR1
  inhibition at 10 µM: 34%
NEK2
  inhibition at 10 µM: 16%
NEK6
  inhibition at 10 µM: 17%
NEK9
  inhibition at 10 µM: 32%
PAK2
  inhibition at 10 µM: 41%
PAK7
  inhibition at 10 µM: 55%
PCTK3
  inhibition at 10 µM: 0%
PIK3C2G
  inhibition at 10 µM: 43%
PKMYT1
  inhibition at 10 µM: 0%
PRKCH
  inhibition at 10 µM: 0%
PRKG1
  inhibition at 10 µM: 11%
RET (V804L)
  inhibition at 10 µM: 2%
RIPK2
  inhibition at 10 µM: 0%
[1]
  inhibition at 10 µM: 0%
S6K1
  inhibition at 10 µM: 51%
SRMS
  inhibition at 10 µM: 29%
SYK
  inhibition at 10 µM: 20%
TRKC
  inhibition at 10 µM: 31%

— paper PMC12300041, “Tricyclic Isatin Derivatives as Anti-Inflammatory Compounds with High Kinase Binding Affinity” (Molecules, 2025)
